Source: PMC7363839, “A Peptide-Based PD1 Antagonist Enhances T-Cell Priming and Efficacy of a Prophylactic Malaria Vaccine and Promotes Survival in a Lethal Malaria Model” (Frontiers in Immunology, 2020)

Test system: P. yoelii 17 XNL sporozoites
Assay: P. yoelii 17 XNL sporozoite challenge of AdPyCS-immunized mice
Type: in vivo, BALB/c mice
Conditions: suboptimal AdPyCS IM; 200 μg IP days 1, 3, 5, 7; challenge day 12 with 100 sporozoites IV; AdPyCS alone 4.8 ± 0.6 days
Protocol: Sporozoite challenge experiments were performed, as described previously ([32]). Briefly, immunized mice were administered 100 live P. yoelii 17 XNL sporozoites IV via the tail vein. Parasitemia was monitored from days 3 to 10 after sporozoite challenge by detecting the presence of parasitized red blood cells in thin blood smears to assess complete protection against malaria. Briefly, a drop of blood was collected from the mouse tail vein for thin blood smears on pre-cleaned glass slides. Thin blood smears were fixed with absolute methanol and then stained with diluted Giemsa stain (1:20, v/v) (Sigma-Aldrich, St. Louis, MO) for 10 min. […]
Figure 2 LD01 increases antigen-specific CD8^+ T cell numbers following AdPyCS vaccination. (A) At day 12 post-AdPyCS immunization, immunogenicity was assessed by measuring the number of splenic PyCS-specific, IFN-γ-secreting CD8^+ T cells using the ELISpot assay after stimulation with the H-2kd restricted CD8 epitope SYVPSAEQI. Data are expressed as the mean ± SD. […] Significant differences between AdPyCS + control peptide and treated mice were determined using a one-way ANOVA multiple comparisons test and are denoted by *p < 0.05 and **p < 0.005. […] Data represent two independent experiments (n = 10/group/experiment) and are expressed as the mean percent protection. […]

With “OVA323−339 (KISQAVHAAHAEINEAG; UniProt P01012 323-339, looked up, fragment) [control peptide, control peptide used in AdPyCS vaccine studies]” the time of patency was 4.7 ± 0.7 days.
